According to patent US6017935A, “7-sulfur substituted paclitaxels” (Bristol-Myers Squibb Company, priority 1998, dated 2000):
Like-named read-outs stand apart in the source and are kept apart here.

Legend:
[1] = test system: HCT-116 human colon carcinoma cells; assay: Cytotoxicity (in vitro) MTS assay in HCT-116 human colon carcinoma cells; assay type: cell-based; conditions: drug concentration required to inhibit cell proliferation to 50% of untreated control
Experimental: Cytoxicity was assessed in HCT-116 human colon carcinoma cells by MTS (3-(4,5-dimethylthiazol-2-yl)-5-(3-carboxymethoxyphenyl)-2-(4-sulphenyl)-2H-tetrazolium, inner salt) assay as reported in T. L. Riss, et al., "Comparison of MTT, XTT, and a novel tetrazolium compound MTS for in vitro proliferation and chemosensitivity assays.", Mol. Biol. Cell 3 (Suppl.):184a, 1992. Cells were plated at 4,000 cell/well in 96 well microtiter plates and 24 hours later drugs were added and serial diluted. The cells were incubated at 37° C. for 72 hours at which time the tetrazolium dye, MTS at 333 μg/ml (final concentration), in combination with the electron coupling agent phenazine methosulfate at 25 μM (final concentration) was added. A dehydrogenase enzyme in live cell reduces the MTS to a form that absorbs light at […] which can be quantitated spectrophotometrically. The greater the absorbance the greater the number of live cells. The results are expressed as an IC50, which is the drug concentration required to inhibit cell proliferation (i.e. absorbance at 450 nm) to 50% of that of untreated control cells.

[2] = background statement; cited from earlier work
[3] = background statement; cited from earlier work; remark: listed apart in the source
[4] = read-out: IC50 HCT 116, HCT-116 cells, MTS assay, 72 hours at 37° C.
[5] = Homo sapiens, HCT-116, 72 h, read-out: IC50 HCT 116, HCT-116 cells, MTS assay, 72 hours at 37° C.
[6] = Homo sapiens, HCT-116 cells, MTS assay, 72 hours at 37° C., read-out: IC50 HCT 116

Compound	IC50 [1, 5]	also measured
CC(=O)O[C@H]1C(=O)[C@]2(C)[C@@H]([S+](C)[O-])C[C@H]3OC[C@@]3(OC(C)=O)[C@H]2[C@H](OC(=O)c2ccccc2)[C@]2(O)C[C@H](OC(=O)[C@H](O)[C@@H](NC(=O)c3ccccc3)c3ccccc3)C(C)=C1C2(C)C (single isomer, unassigned) [Compound 29a, 7-deoxy-7β-methylsulfinyl-paclitaxel]		IC50 [1, 4]: 3.99 nM
CC(=O)O[C@H]1C(=O)[C@]2(C)[C@@H]([S+](C)[O-])C[C@H]3OC[C@@]3(OC(C)=O)[C@H]2[C@H](OC(=O)c2ccccc2)[C@]2(O)C[C@H](OC(=O)[C@H](O)[C@@H](NC(=O)c3ccccc3)c3ccccc3)C(C)=C1C2(C)C (single isomer, unassigned) [Compound 29b, 7-deoxy-7β-methylsulfinyl-paclitaxel]		IC50 [1, 4]: 12.1 nM
CC(=O)O[C@H]1C(=O)[C@]2(C)[C@@H](SC[S+](C)[O-])C[C@H]3OC[C@@]3(OC(C)=O)[C@H]2[C@H](OC(=O)c2ccccc2)[C@]2(O)C[C@H](OC(=O)[C@H](O)[C@@H](NC(=O)c3ccccc3)c3ccccc3)C(C)=C1C2(C)C (stereo partly drawn) [31a&b, 7-deoxy-7β-methylsulfinylmethylthiopaclitaxel]	6.48 nM	
CS[C@@H]1C[C@H]2OC[C@@]2(OC(C)=O)[C@H]2[C@H](OC(=O)c3ccccc3)[C@]3(O)C[C@H](OC(=O)[C@H](O)[C@@H](NC(=O)c4ccccc4)c4ccccc4)C(C)=C([C@@H](OC(C)=O)C(=O)[C@@]21C)C3(C)C [Compound 5a, 7-deoxy-7α-thiomethylpaclitaxel]	13.1 nM	
CC(=O)O[C@H]1C(=O)[C@@]2(C)[C@H]([C@H](OC(=O)c3ccccc3)[C@]3(O)C[C@H](OC(=O)[C@H](O)[C@@H](NC(=O)c4ccccc4)c4ccccc4)C(C)=C1C3(C)C)[C@]1(OC(C)=O)CO[C@@H]1C[C@H]2S(C)(=O)=O [Compound 7a, 7-deoxy-7α-methylsulfonylpaclitaxel]		IC50 [1, 6]: 72.3 nM
CC(=O)O[C@@H]1C2=C(C)[C@@H](OC(=O)[C@H](O)[C@@H](NC(=O)c3ccccc3)c3ccccc3)C[C@@](O)([C@@H](OC(=O)c3ccccc3)[C@@H]3[C@]4(OC(C)=O)CO[C@@H]4C[C@@H]4[C@@]3(C)C1(O)CS4(=O)=O)C2(C)C (stereo partly drawn) [Compound 9a]		IC50 [1, 6]: 2.99 nM
CC(=O)O[C@H]1C(=O)[C@@]2(C)[C@H]([C@H](OC(=O)c3ccccc3)[C@]3(O)C[C@H](OC(=O)[C@H](O)[C@@H](NC(=O)c4ccccc4)c4ccccc4)C(C)=C1C3(C)C)[C@]1(OC(C)=O)CO[C@@H]1C[C@@H]2S [Compound 14a, 7-deoxy-7β-thiopaclitaxel]	13.5 nM	
COCS[C@H]1C[C@H]2OC[C@@]2(OC(C)=O)[C@H]2[C@H](OC(=O)c3ccccc3)[C@]3(O)C[C@H](OC(=O)[C@H](O)[C@@H](NC(=O)c4ccccc4)c4ccccc4)C(C)=C([C@@H](OC(C)=O)C(=O)[C@]12C)C3(C)C [Compound 16a, 7-deoxy-7β-thiomethoxymethyl paclitaxel]	0.5 nM	
CS[C@H]1C[C@H]2OC[C@@]2(OC(C)=O)[C@H]2[C@H](OC(=O)c3ccccc3)[C@]3(O)C[C@H](OC(=O)[C@H](O)[C@@H](NC(=O)c4ccccc4)c4ccccc4)C(C)=C([C@@H](OC(C)=O)C(=O)[C@]12C)C3(C)C [Compound 18a, 7-deoxy-7β-thiomethylpaclitaxel]	0.2 nM	
CC(=O)O[C@H]1C(=O)[C@]2(C)[C@@H](SCCO)C[C@H]3OC[C@@]3(OC(C)=O)[C@H]2[C@H](OC(=O)c2ccccc2)[C@]2(O)C[C@H](OC(=O)[C@H](O)[C@@H](NC(=O)c3ccccc3)c3ccccc3)C(C)=C1C2(C)C [Compound 20a, 7-deoxy-7β-(2-hydroxethylthio)paclitaxel]	0.82 nM	
CS[C@H]1C[C@H]2OC[C@@]2(OC(C)=O)[C@H]2[C@H](OC(=O)c3ccccc3)[C@]3(O)C[C@H](OC(=O)[C@H](O)[C@@H](NC(=O)OC(C)(C)C)c4ccccc4)C(C)=C([C@@H](OC(C)=O)C(=O)[C@]12C)C3(C)C [Compound 22a, 3'-NH-Boc-7-deoxy-7β-thiomethylpaclitaxel]	0.3 nM	
CCS[C@H]1C[C@H]2OC[C@@]2(OC(C)=O)[C@H]2[C@H](OC(=O)c3ccccc3)[C@]3(O)C[C@H](OC(=O)[C@H](O)[C@@H](NC(=O)c4ccccc4)c4ccccc4)C(C)=C([C@@H](OC(C)=O)C(=O)[C@]12C)C3(C)C [Compound 24a, 7-deoxy-7β-thioethylpaclitaxel]	4.02 nM	
CC(=O)O[C@H]1C(=O)[C@]2(C)[C@@H](SCC#N)C[C@H]3OC[C@@]3(OC(C)=O)[C@H]2[C@H](OC(=O)c2ccccc2)[C@]2(O)C[C@H](OC(=O)[C@H](O)[C@@H](NC(=O)c3ccccc3)c3ccccc3)C(C)=C1C2(C)C [Compound 25a]	< 0.04 nM	
C=CS[C@H]1C[C@H]2OC[C@@]2(OC(C)=O)[C@H]2[C@H](OC(=O)c3ccccc3)[C@]3(O)C[C@H](OC(=O)[C@H](O)[C@@H](NC(=O)c4ccccc4)c4ccccc4)C(C)=C([C@@H](OC(C)=O)C(=O)[C@]12C)C3(C)C [Compound 27a, 7-deoxy-7β-thiovinylpaclitaxel]	1.2 nM	
CC(=O)O[C@H]1C(=O)[C@]2(C)[C@@H](SC#N)C[C@H]3OC[C@@]3(OC(C)=O)[C@H]2[C@H](OC(=O)c2ccccc2)[C@]2(O)C[C@H](OC(=O)[C@H](O)[C@@H](NC(=O)c3ccccc3)c3ccccc3)C(C)=C1C2(C)C [Compound 28a, 7-deoxy-7β-thiocyanatopaclitaxel]	1.8 nM	
CC(=O)O[C@H]1C(=O)[C@]2(C)[C@@H](SCc3ccccn3)C[C@H]3OC[C@@]3(OC(C)=O)[C@H]2[C@H](OC(=O)c2ccccc2)[C@]2(O)C[C@H](OC(=O)[C@H](O)[C@@H](NC(=O)c3ccccc3)c3ccccc3)C(C)=C1C2(C)C [Compound 30a, 7-deoxy-7β-(thio-2-picolyl)-paclitaxel]	1.12 nM	
COC(=O)/C=C/S[C@H]1C[C@H]2OC[C@@]2(OC(C)=O)[C@H]2[C@H](OC(=O)c3ccccc3)[C@]3(O)C[C@H](OC(=O)[C@H](O)[C@@H](NC(=O)c4ccccc4)c4ccccc4)C(C)=C([C@@H](OC(C)=O)C(=O)[C@]12C)C3(C)C [Compound 34a, 7-deoxy-7β-thio-(3-methylacrylate)paclitaxel]	6.97 nM	
COC(=O)/C=C\S[C@H]1C[C@H]2OC[C@@]2(OC(C)=O)[C@H]2[C@H](OC(=O)c3ccccc3)[C@]3(O)C[C@H](OC(=O)[C@H](O)[C@@H](NC(=O)c4ccccc4)c4ccccc4)C(C)=C([C@@H](OC(C)=O)C(=O)[C@]12C)C3(C)C [Compound 35a, 7-deoxy-7β-thio-(3-methylacrylate)paclitaxel]	1.76 nM	
CC(=O)O[C@@]12CO[C@@H]1C[C@H](O)[C@@]1(C)C(=O)[C@H](O)C3=C(C)[C@@H](OC(=O)[C@H](O)[C@@H](NC(=O)OC(C)(C)C)c4ccccc4)C[C@@](O)([C@@H](OC(=O)c4ccccc4)[C@H]21)C3(C)C [docetaxel]		antitumor activity [2]: good antitumor activity
CC(=O)O[C@H]1C(=O)[C@@]2(C)[C@H]([C@H](OC(=O)c3ccccc3)[C@]3(O)C[C@H](OC(=O)[C@H](O)[C@@H](NC(=O)c4ccccc4)c4ccccc4)C(C)=C1C3(C)C)[C@]1(OC(C)=O)CO[C@@H]1C[C@@H]2O [paclitaxel]	1.71 to 2.28 nM	antitumor activity in in vivo animal models [3]: excellent antitumor activity
